The record followed here is patent publication US20140364431A1, “Quinoline and cinnoline derivatives and their applications” (Shenyang Pharmaceutical University, priority 2011, published 2014).

Converted amounts (≈) assume the structure as drawn. Read-outs that look alike come from different tables or passages of the source.

Assay [1] deals with H460 (human lung cancer cell). The experiment in a line: In vitro anti-tumor cellular activity (MTT), H460. It counts as cell-based. The following applies: for IC50: Homo sapiens, read-out: H460 IC50.
In assay [2] the test system is U87MG (Human malignant glioblastoma cells). Put plainly: In vitro anti-tumor cellular activity (MTT), U87MG. To be noted: for IC50: Homo sapiens, U-87 MG, read-out: U87MG IC50. It counts as cell-based.
Assay [3] has as its system HT-29 (colon cancer cell). The experiment in a line: In vitro anti-tumor cellular activity (MTT), HT-29. It counts as cell-based, human. The following applies: for IC50: Homo sapiens, read-out: HT-29 IC50.
The test system of assay [4] is MKN-45 (human gastric carcinoma cell). Put plainly: In vitro anti-tumor cellular activity (MTT), MKN-45. The assay is classed as cell-based. To be noted: MTT, 72 hours, MKN-45; for IC50: Homo sapiens, read-out: MKN-45 IC50.
The test system of assay [5] is SMMC-7721 (hepatoma cell). The experiment in a line: In vitro anti-tumor cellular activity (MTT), SMMC-7721. To be noted: for IC50: Homo sapiens, read-out: SMMC-7721 IC50. The assay is classed as cell-based, human.
Assay [6] deals with T1, c-Met (His-tagged recombinant human Met (Amino acids 974-ends)) (Homo sapiens, UniProt P08581).
T1 construct: His-tagged recombinant human Met (Amino acids 974-ends); His; host or cells: baculovirus expression
Put plainly: c-Met kinase assay (ELISA). To be noted: 50 pM c-Met, 5 μM ATP, 20 min. The assay is classed as biochemical. The procedure: c-Met kinase activity was measured with an ELISA reader.
The reaction mixture was removed by washing with 0.2 μg/mL conjugated horseradish peroxidase (HRP) monoclonal antibody specific for phosphotyrosine (PY20) detecting phosphorylation of the substrate polymer. 1M phosphoric acid was added to terminate the color, the chromogenic substrate (TMB) was tested by spectrophotometry at 450 nm.

T1 sequence (P08581 974-1390 limits assumed): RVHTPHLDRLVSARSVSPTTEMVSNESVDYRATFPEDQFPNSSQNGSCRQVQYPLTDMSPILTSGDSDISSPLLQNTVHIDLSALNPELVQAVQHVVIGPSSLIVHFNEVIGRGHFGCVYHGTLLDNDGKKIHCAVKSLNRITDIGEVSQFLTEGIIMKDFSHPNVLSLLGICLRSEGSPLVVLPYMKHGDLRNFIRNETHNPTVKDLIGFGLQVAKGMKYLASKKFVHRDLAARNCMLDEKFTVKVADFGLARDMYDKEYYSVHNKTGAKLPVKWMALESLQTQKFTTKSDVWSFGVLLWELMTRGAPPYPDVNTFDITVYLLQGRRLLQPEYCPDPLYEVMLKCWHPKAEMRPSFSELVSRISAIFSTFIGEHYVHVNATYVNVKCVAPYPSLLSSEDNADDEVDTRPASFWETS

Broadly, the IC50 is the concentration that inhibits the measured activity by half. Turning to `COc1cc2c(Oc3ccc(NC(=O)c4nn(-c5ccccc5C(F)(F)F)c5ccccc5c4=O)cc3F)ccnc2cc1OCCCN1CCCC1.Cl.Cl` [Example 1, N-(3-fluoro-4-((6-methoxy-7-(3-(pyrrolidin-1-yl)propoxy)quinolin-4-yl)oxy)phenyl)-1-(2-(trifluoromethyl)phenyl)-4-oxo-1,4-dihydrocinnoline-3-carboxamide dihydrochloride], the IC50 is 0.04 µg/mL in assay [1] (NCI-H460, MTT, 72 hours, H460); 0.18 µg/mL in assay [2] (MTT, 72 hours, U87MG); 0.18 µg/mL in assay [3] (MTT, 72 hours, HT-29); 0.27 µg/mL in assay [4]; 0.57 µg/mL in assay [5] (MTT, 72 hours, SMMC-7721); 62.5 nM in assay [6].
For `COc1cc2c(Oc3ccc(NC(=O)c4nn(-c5ccc(F)c(F)c5)c5ccccc5c4=O)cc3F)ccnc2cc1OCCCN1CCCCC1` [Example 11, N-(3-fluoro-4-((6-methoxy-7-(3-(piperidin-1-yl)propoxy)quinolin-4-yl)oxy)phenyl)-1-(3,4-difluorophenyl)-4-oxo-1,4-dihydrocinnoline-3-carboxamide], the IC50 is 0.06 µg/mL (≈ 0.0845 µM) in assay [1] (NCI-H460, MTT, 72 hours, H460); 3.5 µg/mL (≈ 4.93 µM) in assay [2] (MTT, 72 hours, U87MG); 0.38 µg/mL (≈ 0.535 µM) in assay [3] (MTT, 72 hours, HT-29); 0.12 µg/mL (≈ 0.169 µM) in assay [4]; 0.63 µg/mL (≈ 0.888 µM) in assay [5] (MTT, 72 hours, SMMC-7721); 42.3 nM in assay [6].
As for `COc1cc2c(Oc3ccc(NC(=O)c4nn(-c5ccc(F)cc5Br)c5ccccc5c4=O)cc3F)ccnc2cc1OCCCN1CCN(C)CC1` [Example 19, N-(3-fluoro-4-((6-methoxy-7-(3-(4-methylpiperazin-1-yl)propoxy)quinolin-4-yl)oxy)phenyl)-1-(2-bromo-4-fluorophenyl)-4-oxo-1,4-dihydrocinnoline-3-carboxamide], the IC50 in assay [1] (NCI-H460, MTT, 72 hours, H460) is 2.2 µg/mL (≈ 2.8 µM); in assay [2] (MTT, 72 hours, U87MG), 1.2 µg/mL (≈ 1.53 µM); in assay [3] (MTT, 72 hours, HT-29), 0.54 µg/mL (≈ 0.687 µM); in assay [4], 0.86 µg/mL (≈ 1.09 µM); in assay [5] (MTT, 72 hours, SMMC-7721), 1.6 µg/mL (≈ 2.04 µM); in assay [6], 1530 nM.
Consider `COc1cc2c(Oc3ccc(NC(=O)c4nn(-c5ccccc5F)c5ccccc5c4=O)cc3F)ccnc2cc1OCCCN1CCCC1` [Example 41, N-(3-fluoro-4-((6-methoxy-7-(3-(pyrrolidin-1-yl)propoxy)quinolin-4-yl)oxy)phenyl)-1-(2-fluorophenyl)-4-oxo-1,4-dihydrocinnoline-3-carboxamide], for which the IC50 in assay [6] is 2070 nM.
Turning to `COc1cc2c(Oc3ccc(NC(=O)c4nn(-c5ccc(F)cc5)c5ccccc5c4=O)cc3F)ccnc2cc1OCCCN1CCN(C)CC1` [Example 42, N-(3-fluoro-4-((6-methoxy-7-(3-(4-methylpiperazin-1-yl)propoxy)quinolin-4-yl)oxy)phenyl)-1-(4-fluorophenyl)-4-oxo-1,4-dihydrocinnoline-3-carboxamide], the IC50 was 2.7 µg/mL (≈ 3.82 µM) in assay [1] (NCI-H460, MTT, 72 hours, H460); 2.1 µg/mL (≈ 2.97 µM) in assay [2] (MTT, 72 hours, U87MG); 1.5 µg/mL (≈ 2.12 µM) in assay [3] (MTT, 72 hours, HT-29); 1.6 µg/mL (≈ 2.26 µM) in assay [5] (MTT, 72 hours, SMMC-7721); 1410 nM in assay [6].
As to `COc1cc2c(Oc3ccc(NC(=O)c4cn(-c5ccc(F)c(F)c5)c5ccccc5c4=O)cc3F)ccnc2cc1OCCCN1CCCCC1` [Example 60, N-(3-fluoro-4-((6-methoxy-7-(3-(piperidin-1-yl)propoxy)quinolin-4-yl)oxy)phenyl)-1-(3,4-difluorophenyl)-4-oxo-1,4-dihydroquinoline-3-carboxamide], the IC50 in assay [6] was 409 nM.
As for `COc1cc2c(Oc3ccc(NC(=O)c4nn(-c5ccccc5F)c5ccccc5c4=O)cc3F)cnnc2cc1OCCCN1CCCC1` [Example 63, N-(3-fluoro-4-((6-methoxy-7-(3-(pyrrolidin-1-yl)propoxy)cinnolin-4-yl)oxy)phenyl)-1-(2-fluorophenyl)-4-oxo-1,4-dihydrocinnoline-3-carboxamide], the IC50 in assay [1] (NCI-H460, MTT, 72 hours, H460) was 1.6 µg/mL (≈ 2.36 µM); in assay [2] (MTT, 72 hours, U87MG) it was 1.8 µg/mL (≈ 2.65 µM); in assay [3] (MTT, 72 hours, HT-29), 1.3 µg/mL (≈ 1.92 µM); in assay [5] (MTT, 72 hours, SMMC-7721) it was 0.9 µg/mL (≈ 1.33 µM); in assay [6], 1180 nM.
For the compound `COc1cc2c(Oc3ccc(NC(=O)c4nn(-c5cccc(F)c5)c5ccccc5c4=O)cc3F)cnnc2cc1OCCCN1CCCCC1` [Example 64, N-(3-fluoro-4-((6-methoxy-7-(3-(piperidin-1-yl)propoxy)cinnolin-4-yl)oxy)phenyl)-1-(3-fluorophenyl)-4-oxo-1,4-dihydrocinnoline-3-carboxamide], the IC50 in assay [1] (NCI-H460, MTT, 72 hours, H460) amounted to 1.8 µg/mL (≈ 2.6 µM); in assay [2] (MTT, 72 hours, U87MG), 2.7 µg/mL (≈ 3.9 µM); in assay [3] (MTT, 72 hours, HT-29), 3.2 µg/mL (≈ 4.62 µM); in assay [4] it was 3.3 µg/mL (≈ 4.76 µM); in assay [5] (MTT, 72 hours, SMMC-7721) it was 1.9 µg/mL (≈ 2.74 µM).
Take `COc1cc2c(Oc3ccc(NC(=O)c4nn(-c5ccc(Br)cc5)c5ccccc5c4=O)cc3F)cnnc2cc1OCCCN1CCCCC1` [Example 65, N-(3-fluoro-4-((6-methoxy-7-(3-(piperidin-1-yl)propoxy)cinnolin-4-yl)oxy)phenyl)-1-(4-bromophenyl)-4-oxo-1,4-dihydrocinnoline-3-carboxamide]: the IC50 in assay [6] is 902 nM.
Consider `COc1cc2c(Oc3ccc(NC(=O)c4nn(-c5ccc(Cl)cc5Cl)c5ccccc5c4=O)cc3F)cnnc2cc1OCCCN1CCCC1` [Example 70, N-(3-fluoro-4-((6-methoxy-7-(3-(pyrrolidin-1-yl)propoxy)cinnolin-4-yl)oxy)phenyl)-1-(2,4-dichlorophenyl)-4-oxo-1,4-dihydrocinnoline-3-carboxamide], for which the IC50 in assay [1] (NCI-H460, 72 h) is 2.6 µg/mL (≈ 3.56 µM); in assay [2] (72 h) it was 2.1 µg/mL (≈ 2.88 µM); in assay [3] (HT-29, 72 h), 3.2 µg/mL (≈ 4.39 µM); in assay [5] (SMMC-7721, 72 h) it was 1.8 µg/mL (≈ 2.47 µM); in assay [6], 959 nM.
For “N-(3-fluoro-4-((6-methoxy-7-(3-(4-methylpiperazin-1-yl)propoxy)quinolin-4-yl)oxy)phenyl)-1-(4-bromophenyl)-4-oxo-1,4-dihydrocinnoline-3-carboxamide [Example 40]”, in assay [6], the “c-Met IC50” value is 0.9 µg/mL.
Take “N-(3-fluoro-4-((6-methoxy-7-(3-(4-methylpiperidin-1-yl)propoxy)quinolin-4-yl)oxy)phenyl)-1-(2-fluorophenyl)-4-oxo-1,4-dihydrocinnoline-3-carboxamide [Example 14]”: the “H460 IC50” value in assay [1] (MTT, 72 hours, H460) amounted to 0.47 µg/mL. Besides, the “U87MG IC50” value in assay [2] (MTT, 72 hours, U87MG) was 0.15 µg/mL. Besides, the “HT-29 IC50” value in assay [3] (MTT, 72 hours, HT-29) is 0.31 µg/mL. In addition, the “MKN-45 IC50” value in assay [4] stood at 0.45 µg/mL. In addition, in assay [5] (MTT, 72 hours, SMMC-7721), the “SMMC-7721 IC50” value was determined as 1.1 µg/mL.
The corresponding values for “N-(3-fluoro-4-((6-methoxy-7-(3-(4-methylpiperidin-1-yl)propoxy)quinolin-4-yl)oxy)phenyl)-1-(4-fluorophenyl)-4-oxo-1,4-dihydrocinnoline-3-carboxamide [Example 13]” are 0.081 µg/mL, 0.45 µg/mL, 0.18 µg/mL, 0.23 µg/mL and 0.67 µg/mL.
For “N-(3-fluoro-4-((6-methoxy-7-(3-(morpholin-4-yl)propoxy)quinolin-4-yl)oxy)phenyl)-1-(2-f luorophenyl)-4-oxo-1,4-dihydrocinnoline-3-carboxamide [Example 45]”, in that order: 1 µg/mL, 2.1 µg/mL, 0.87 µg/mL, 1.6 µg/mL and 2.3 µg/mL.
With “N-(3-fluoro-4-((6-methoxy-7-(3-(piperidin-1-yl)propoxy)quinolin-4-yl)oxy)phenyl)-1-(2-(tr ifluoromethyl)phenyl)-4-oxo-1,4-dihydrocinnoline-3-carboxamide dihydrochloride [Example 5]”, the “H460 IC50” value in assay [1] (MTT, 72 hours, H460) worked out at 0.77 µg/mL. The “U87MG IC50” value in assay [2] (MTT, 72 hours, U87MG) was found to be 1.2 µg/mL. Also, the “HT-29 IC50” value in assay [3] (MTT, 72 hours, HT-29) worked out at 0.42 µg/mL. In addition, the “MKN-45 IC50” value in assay [4] was found to be 0.2 µg/mL. Moreover, in assay [5] (MTT, 72 hours, SMMC-7721), the “SMMC-7721 IC50” value stood at 0.25 µg/mL.
For “N-(3-fluoro-4-((6-methoxy-7-(3-(piperidin-1-yl)propoxy)quinolin-4-yl)oxy)phenyl)-1-(2-ch lorophenyl)-4-oxo-1,4-dihydrocinnoline-3-carboxamide dihydrochloride [Example 2]”, in that order: 0.052 µg/mL, 0.35 µg/mL, 0.19 µg/mL, 0.007 µg/mL and 0.3 µg/mL.
The corresponding values for “N-(3-fluoro-4-((6-methoxy-7-(3-(pyrrolidin-1-yl)propoxy)quinolin-4-yl)oxy)phenyl)-1-(3,4-difluorophenyl)-4-oxo-1,4-dihydrocinnoline-3-carboxamide [Example 12]” are 0.91 µg/mL, 0.55 µg/mL, 0.41 µg/mL, 1.2 µg/mL and 0.67 µg/mL.
